Measured values taken from patent US4745124A, “Orally effective anti-hypertensive agents” (priority 1983, dated 1988).
Where “and” joins values, the source holds several entries; their conditions need not be identical. Identical values can stand only once. Blank lines part the entries; values can stand above or below the compound they belong to.

Tests used:
[1] = target: T1, angiotensin converting enzyme (human urinary ACE) (Homo sapiens, UniProt P12821); assay: ACE activity assay, I50 (Example 216A); type: biochemical; conditions: human urinary ACE; Benzoyl-GlyHisLeu 1×10^-4 M; Hepes pH 8.0; 37° C; in vitro; read-out: I50
T1 construct: ACE purified from human urine; from tissue; host or cells: human urine (ultrafiltration and Sephacryl S-200, first eluting peak; prepared as in Ryan et al., Tissue and Cell 10, 555 (1978))
T1 sequence (P12821 30-1232 limits assumed): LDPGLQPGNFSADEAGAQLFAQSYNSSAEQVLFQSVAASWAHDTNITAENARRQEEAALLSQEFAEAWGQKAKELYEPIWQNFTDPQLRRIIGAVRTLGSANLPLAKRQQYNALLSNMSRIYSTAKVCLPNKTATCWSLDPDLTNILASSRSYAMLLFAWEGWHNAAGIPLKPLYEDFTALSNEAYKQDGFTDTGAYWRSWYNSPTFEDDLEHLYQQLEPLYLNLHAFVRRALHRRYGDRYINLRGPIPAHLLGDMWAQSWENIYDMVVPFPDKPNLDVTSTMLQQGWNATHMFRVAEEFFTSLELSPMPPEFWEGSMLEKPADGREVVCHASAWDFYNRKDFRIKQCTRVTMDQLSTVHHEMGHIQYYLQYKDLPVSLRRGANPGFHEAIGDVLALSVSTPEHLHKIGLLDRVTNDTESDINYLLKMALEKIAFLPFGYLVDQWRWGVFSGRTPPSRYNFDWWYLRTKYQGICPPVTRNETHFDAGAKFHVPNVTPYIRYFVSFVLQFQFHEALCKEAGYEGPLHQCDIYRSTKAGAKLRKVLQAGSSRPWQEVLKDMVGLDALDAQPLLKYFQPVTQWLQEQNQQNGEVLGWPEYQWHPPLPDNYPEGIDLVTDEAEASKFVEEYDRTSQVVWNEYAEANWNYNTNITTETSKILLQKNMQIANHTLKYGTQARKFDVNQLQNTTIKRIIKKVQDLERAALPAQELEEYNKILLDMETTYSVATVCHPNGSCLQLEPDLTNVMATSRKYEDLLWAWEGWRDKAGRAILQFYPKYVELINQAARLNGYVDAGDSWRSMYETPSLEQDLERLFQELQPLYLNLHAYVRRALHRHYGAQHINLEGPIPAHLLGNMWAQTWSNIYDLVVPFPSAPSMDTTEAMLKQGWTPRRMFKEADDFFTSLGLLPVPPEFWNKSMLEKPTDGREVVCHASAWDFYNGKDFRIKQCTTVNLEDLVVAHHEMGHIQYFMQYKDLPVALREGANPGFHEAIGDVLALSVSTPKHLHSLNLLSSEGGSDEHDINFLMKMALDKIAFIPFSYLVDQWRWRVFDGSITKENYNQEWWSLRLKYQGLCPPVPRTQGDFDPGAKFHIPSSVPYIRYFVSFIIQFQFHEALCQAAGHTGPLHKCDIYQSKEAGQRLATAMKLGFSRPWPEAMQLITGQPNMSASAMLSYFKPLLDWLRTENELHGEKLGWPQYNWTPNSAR

[2] = resistance of thioester compounds to alkaline hydrolysis; type: physicochemical
Excerpt: Therefore the observed inhibitory effects cannot be accounted for by postulating spontaneous hydrolysis of the thioester bond to regenerate the free sulfhydryl group.

[3] = test system: pressor effects of angiotensin I; assay: oral effectiveness: blood pressure response to angiotensin I in anesthetized rats; type: in vivo, rat; conditions: for Blood Pressure Response to 400 ng/kg of Angiotensin I: oral 17 μmol/kg, Ex. 228
Procedure, shortened: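 Fasted rats under pentobarbital anesthesia (50-60 mg/kg i.p.), ventilated, with carotid arterial pressure recorded; i.v. angiotensin I (80 ng, 160 ng or 400 ng/kg) or angiotensin II (80 ng) challenges repeated at timed intervals after oral gavage of compound (2-20 mg/kg, 10 mg, 17 or 23 μmol/kg) in aqueous NaHCO3.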

[4] = test system: pressor effects of angiotensin II; assay: oral: blood pressure response to angiotensin II in anesthetized rats; type: in vivo, rat; conditions: 12 or 20 mg/kg
Experimental: Rats (210-290 g body weight) were fasted overnight and then anesthetized with intraperitoneal pentobarbital, 50-60 mg/kg. Tracheostomy was performed and the animals were ventilated mechanically. A cannula was inserted into a femoral vein for injection of angiotensin I or II, and a second cannula was inserted into a common carotid artery for direct measurement of arterial blood pressure. Heparin, 1,000 units, was injected via the femoral vein to prevent coagulation. Blood pressure was measured with a pressure transducer connected to a polygraph. The rats were injected with 80 ng of angiotensin I or angiotensin II in 20 μl of 0.9 g % NaCl; an amount of antiotensin I or II sufficient to raise mean arterial blood pressure by 27-40 mm Hg. After the responsiveness of a given rat to angiotensins I and II was established, compound (I), at 2 or 5 mg/kg (drug dissolved in 0.5 ml of H2 O plus 10 μl of 1N NaHCO3), was given via a stomach tube. At timed intervals, the effects of 80 ng of angiotensin I or angiotensin II on mean arterial blood pressure were tested.
Rats were prepared as described in Example 222. Compound (II) [N-benzoyl-L-phenylalanylthiopropanoyl)-L-proline] was given orally, via a stomach tube, at a dose of 12 mg/kg or 20 mg/kg. Compound (II) was dissolved in 0.5 ml of H2 O plus 10 μl of 1N NaHCO3. […]

[5] = stability of aqueous solution of SQ 14225 on standing; type: physicochemical; conditions: 1 mg per ml, pH about 8, as little as 30 minutes
[6] = test system: ACE from guinea pig or human urine; assay: inhibition of ACE prepared from guinea pig or human urine, [3H]-HipGlyGly substrate; type: biochemical; conditions: SQ 14,225 at 0.1 μM
Experimental: B. In certain experiments, as identified, an alternative assay system was employed using [^3 H]-HipGlyGly as substrate as described by Ryan, J. W., et al., Biochem. J. 167 501 (1977).
Fresh urine was ultrafiltered using a membrane (PTGC 142 05, Millipore Corp., Bedford, MA, U.S.A.) with a 10,000 MW retention limit. Typically, 500 ml of urine was ultrafiltered to approx. 15 ml and then the concentrated proteins were washed with water and then applied to a column (2.5×110 cm) of Sephacryl S-200, Trademark, Pharmacia Chemical Co., Uppsala, Sweden, previously equilibrated with 0.05M TrisHCl buffer, pH 8.0, with 0.5M NaCl. Under these conditions, ACE was eluted in two peaks; one, the major peak, was eluted just after the void volume (Ve /Vo =1.21) and the second (up to 20% of the total activity) at Ve /Vo =1.41. Enzyme activity was measured using [^3 H]-HipGlyGly as described in Example 1B. […] The activities were inhibited to a maximum of 84% by antibody to guinea pig lung ACE. The enzyme used herein was that of the first peak to emerge from the Sepacryl column. The enzyme preparation was concentrated about 10-fold by ultrafiltration. In one such experiment, the concentrated urinary protein solution obtained by ultrafiltration contained 2,400 m units of enzyme at 8.0 m units/mg of protein, and peak 1 from the Sephacryl column contained 1,100 m units at 814 m units/mg of protein. […]

[7] = oral; most patients; cited from earlier work
[8] = test system: pressor effects of angiotensin I; assay: intravenous effectiveness: blood pressure response to angiotensin I in anesthetized rats; type: in vivo, rat; conditions: i.v. 2 μmol/kg, Ex. 229
Experimental: (§1) Anesthetized rats were prepared as described in Example 228. After the responsiveness of a given rat to angiotensin I was established, the named compound at 2 μmol/kg, in a volume of 15 μl of 0.01N sodium bicarbonate, was injected via a femoral vein. At timed intervals, the effects of angiotensin I, 400 ng/kg, on mean arterial blood pressure were tested. Results are shown below:
as §1, with “231.” for “228.”, “compound,” for “compound”
Anesthetized rats were prepared as described in Example 239. The animals were administered the named compound via a femoral vein in 15 μl of 0.01N sodium bicarbonate, after the control response to 400 ng/kg of angiotensin I was measured. […] The time required for recovery of one half of the lost responsiveness to angiotensin I, following injection of the named compound, was designated t1/2. […] Results are shown for two dose levels:
Anesthetized rats were prepared as described in Example 242. The named compound was administered intravenously via a femoral vein, at the stated dose, in 15 μl of 0.01N sodium bicarbonate. The response to intravenous administration was a rapid decrease in responsiveness to Angtiotensin I, 400 ng/kg, followed by a gradual recovery to the pretreatment level of responsiveness. The time required for recovery of one half the lost responsiveness to angiotensin I, following injection of the named compound, is designated t1/2. […] Results are shown for the three dose levels:
The intravenous effectiveness of the named compound was examined by following the procedure described in Example 244 except that 1 μmole/kg of the drug was given intravenously. The results are shown below:
The intravenous effectiveness of the named compound was examined by following the procedure described in Example 246 except that 1 μmole/Kg of the drug was given intravenously.

IC50 [1]: 70 nM and 40 nM
Structure (SMILES): CC(SC(=O)C(Cc1ccccc1)NC(=O)c1ccccc1)C(=O)N1CCC[C@H]1C(=O)O (stereo partly drawn) [Compound (II), 2-benzoylphenylalanylthiopropanoyl-L-proline]
resistance to alkaline hydrolysis [2]: surprisingly resistant to alkaline hydrolysis | Blood Pressure Response to 80 ng of Angiotensin I ([3]; oral 12 mg/kg, 6 min, Rat 1): 109 % of control | Blood Pressure Response to 80 ng of Angiotensin I ([3]; oral 12 mg/kg, 12 min, Rat 1): 80 % of control | Blood Pressure Response to 80 ng of Angiotensin I ([3]; oral 12 mg/kg, 30 min, Rat 1): 51 % of control | Blood Pressure Response to 80 ng of Angiotensin I ([3]; oral 12 mg/kg, 47 min, Rat 1): 71 % of control | Blood Pressure Response to 80 ng of Angiotensin I ([3]; oral 12 mg/kg, 56 min, Rat 1): 69 % of control | Blood Pressure Response to 80 ng of Angiotensin I ([3]; oral 12 mg/kg, 76 min, Rat 1): 63 % of control | Blood Pressure Response to 80 ng of Angiotensin I ([3]; oral 12 mg/kg, 150 min, Rat 1): 49 % of control | Blood Pressure Response to 80 ng of Angiotensin I ([3]; oral 12 mg/kg, 158 min, Rat 1): 57 % of control | Blood Pressure Response to 80 ng of Angiotensin I ([3]; oral 20 mg/kg, 6 min, Rat 2): 91 % of control | Blood Pressure Response to 80 ng of Angiotensin I ([3]; oral 20 mg/kg, 12 min, Rat 2): 70 % of control | Blood Pressure Response to 80 ng of Angiotensin I ([3]; oral 20 mg/kg, 23 min, Rat 2): 76 % of control | Blood Pressure Response to 80 ng of Angiotensin I ([3]; oral 20 mg/kg, 30 min, Rat 2): 76 % of control | Blood Pressure Response to 80 ng of Angiotensin I ([3]; oral 20 mg/kg, 56 min, Rat 2): 55 % of control | Blood Pressure Response to 80 ng of Angiotensin I ([3]; oral 20 mg/kg, 76 min, Rat 2): 40 % of control | Blood Pressure Response to 80 ng of Angiotensin I ([3]; oral 20 mg/kg, 95 min, Rat 2): 40 % of control | Blood Pressure Response to 80 ng of Angiotensin I ([3]; oral 20 mg/kg, 142 min, Rat 2): 76 % of control | Blood Pressure Response to 80 ng of Angiotensin I ([3]; oral 20 mg/kg, 158 min, Rat 2): 76 % of control | Blood Pressure Response to 80 ng of Angiotensin I ([3]; oral 20 mg/kg, 166 min, Rat 2): 76 % of control | Blood Pressure Response to 80 ng of Angiotensin I ([3]; oral 20 mg/kg, 176 min, Rat 2): 76 % of control | pressor effects of angiotensin II (specificity) [4]: did not inhibit

Structure (SMILES): C[C@H](CS)C(=O)N1CCCC1C(=O)O (stereo in doubt) [SQ 14225, D-3-mercapto-2-methylpropanoyl-L-proline]
activity of aqueous solution on standing [5]: substantially less active | inhibition of activities of both ACE peaks [6]: inhibited completely | stability in normal gastric and intestinal environments [7]: sufficiently stable

IC50 [1]: 15 nM
Structure (SMILES): C[C@H](CSC(=O)[C@H](Cc1ccccc1)NC(=O)[C@H](CCCCN)NC(=O)C1CCCC1)C(=O)N1CCC[C@H]1C(=O)O [N-alpha-[3-(N-alpha-cyclopentylcarbonyl-L-lysyl-L-phenylalanylthio)-2-D-methylpropanoyl]-L-proline]
Blood Pressure Response to 400 ng/kg of Angiotensin I ([3]; 5 min): 59 % of Control | Blood Pressure Response to 400 ng/kg of Angiotensin I ([3]; 10 min): 44 % of Control | Blood Pressure Response to 400 ng/kg of Angiotensin I ([3]; 15 min): 44 % of Control | Blood Pressure Response to 400 ng/kg of Angiotensin I ([3]; 31 min): 44 % of Control | Blood Pressure Response to 400 ng/kg of Angiotensin I ([3]; 37 min): 38 % of Control | Blood Pressure Response to 400 ng/kg of Angiotensin I ([3]; 45 min): 44 % of Control | Blood Pressure Response to 400 ng/kg of Angiotensin I ([3]; 55 min): 44 % of Control | Blood Pressure Response to 400 ng/kg of Angiotensin I ([3]; 81 min): 36 % of Control | Blood Pressure Response to 400 ng/kg of Angiotensin I ([3]; 93 min): 36 % of Control | Blood Pressure Response to 400 ng/kg of Angiotensin I ([3]; 104 min): 38 % of Control | Blood Pressure Response to 400 ng/kg of Angiotensin I ([8]; 3 min): 8 % of Control | Blood Pressure Response to 400 ng/kg of Angiotensin I ([8]; 9 min): 15 % of Control | Blood Pressure Response to 400 ng/kg of Angiotensin I ([8]; 14 min): 23 % of Control | Blood Pressure Response to 400 ng/kg of Angiotensin I ([8]; 19 min): 23 % of Control | Blood Pressure Response to 400 ng/kg of Angiotensin I ([8]; 24 min): 33 % of Control | Blood Pressure Response to 400 ng/kg of Angiotensin I ([8]; 37 min): 41 % of Control | Blood Pressure Response to 400 ng/kg of Angiotensin I ([8]; 45 min): 46 % of Control | Blood Pressure Response to 400 ng/kg of Angiotensin I ([8]; 54 min): 46 % of Control | Blood Pressure Response to 400 ng/kg of Angiotensin I ([8]; 77 min): 46 % of Control | Blood Pressure Response to 400 ng/kg of Angiotensin I ([8]; 87 min): 51 % of Control
